Measurements as given in PubChem BioAssay (NCI).
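Assay format: 96-well plates, 48-hour exposure. TGI is the concentration that stops growth completely.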

Tests used:
Experiment in all cases: NCI anticancer screen, dose series, 48 h
SR leukemia = test system: SR leukemia
A549 NSCLC = test system: A549 NSCLC
A498 renal = test system: A498 renal
MDA-N = test system: MDA-N
HL-60(TB) leukemia = test system: HL-60(TB) leukemia
SK-MEL-5 melanoma = test system: SK-MEL-5 melanoma
NCI-H23 lung = test system: NCI-H23 lung
OVCAR-3 ovarian = test system: OVCAR-3 ovarian
IGROV1 ovarian = test system: IGROV1 ovarian
UO-31 renal = test system: UO-31 renal
SF-268 CNS = test system: SF-268 CNS
HCT-116 colon = test system: HCT-116 colon
786-0 renal = test system: 786-0 renal
MDA-MB-435 = test system: MDA-MB-435
UACC-62 melanoma = test system: UACC-62 melanoma
UACC-257 melanoma = test system: UACC-257 melanoma
HCT-15 colon = test system: HCT-15 colon
MCF7 breast = test system: MCF7 breast
U251 CNS = test system: U251 CNS
CCRF-CEM leukemia = test system: CCRF-CEM leukemia
NCI-H522 lung = test system: NCI-H522 lung
OVCAR-4 ovarian = test system: OVCAR-4 ovarian
TK-10 renal = test system: TK-10 renal
SK-MEL-2 melanoma = test system: SK-MEL-2 melanoma
T-47D breast = test system: T-47D breast
MDA-MB-231 breast = test system: MDA-MB-231 breast
PC-3 prostate = test system: PC-3 prostate
OVCAR-8 ovarian = test system: OVCAR-8 ovarian
EKVX NSCLC = test system: EKVX NSCLC
LOX IMVI melanoma = test system: LOX IMVI melanoma
OVCAR-5 ovarian = test system: OVCAR-5 ovarian
COLO 205 colon = test system: COLO 205 colon
SNB-19 CNS = test system: SNB-19 CNS
RPMI-8226 leukemia = test system: RPMI-8226 leukemia
SNB-75 CNS = test system: SNB-75 CNS
NCI-H460 lung = test system: NCI-H460 lung
SN12C renal = test system: SN12C renal
HT29 colon = test system: HT29 colon
M14 melanoma = test system: M14 melanoma
SF-539 CNS = test system: SF-539 CNS
HOP-62 NSCLC = test system: HOP-62 NSCLC
NCI-H226 lung = test system: NCI-H226 lung
SW-620 colon = test system: SW-620 colon
HS 578T breast = test system: HS 578T breast
K-562 leukemia = test system: K-562 leukemia
SF-295 CNS = test system: SF-295 CNS
HOP-92 NSCLC = test system: HOP-92 NSCLC
SK-MEL-28 melanoma = test system: SK-MEL-28 melanoma
SK-OV-3 ovarian = test system: SK-OV-3 ovarian
DU-145 prostate = test system: DU-145 prostate
KM12 colon = test system: KM12 colon
MOLT-4 leukemia = test system: MOLT-4 leukemia
CAKI-1 renal = test system: CAKI-1 renal
NCI/ADR-RES ovarian = test system: NCI/ADR-RES ovarian
ACHN renal = test system: ACHN renal
MALME-3M melanoma = test system: MALME-3M melanoma
HCC-2998 colon = test system: HCC-2998 colon

Measured: TGI

C=C(CCOC)CCC1CCCCC(=C)[C@H]1OC(C)=O (stereo partly specified)
not listed: MALME-3M melanoma | HCC-2998 colon
> 100 µM: all other assays above

O=C1CSC(=S)N1
not listed: A498 renal | MDA-MB-435 | UACC-62 melanoma | OVCAR-4 ovarian | HT29 colon | SK-OV-3 ovarian
> 100 µM: all other assays above
